The text below walks through data of patent US5258398A, “Antithrombotic diaminoalkanoic acid derivatives” (Rhone-Poulenc Rorer Pharmaceuticals Inc., priority 1991, dated 1993).

Where only a bound is given, the exact number is not on record here.

The test system of test [1] is thrombin-stimulated platelets. Nature of the test: Fibrinogen-Binding Assay (inhibition of 125I-fibrinogen binding to platelets). The note with it: 125I-labeled fibrinogen 0.176 μmol/liter (60 μg/ml); 22°-25° C., 30 minutes; read-out: Inhibition of 125I-Fibrinogen Binding to Platelet (IC50). The text has this: (§1) The effectiveness of compounds of the present invention as inhibitors of thrombus formation and platelet aggregation may be determined by the following pharmacologic tests which evaluate the inhibition of fibrinogen-mediated platelet aggregation and fibrinogen binding to thrombin-stimulated platelets by said compounds.
(§2) The Platelet Aggregation Assay is based on that described in Blood 66 (4), 946-952 (1985). The Fibrinogen-Binding Assay is essentially that of Ruggeri, Z. M., et al., Proc. Natl. Acad. Sci. USA 83, 5708-5712 (1986) and Plow, E. F., et al., Proc. Natl. Acad. Sci., USA 82, 8057-8061 (1985).
Platelets are washed free of plasma constituents by the albumin density-gradient technique of Walsh, P. N., et al., Br. J. Haematol. 281-296 (1977), as modified by Trapani-Lombardo, V., et al., J. Clin Invest. 76, 1950-1958 (1985). […] The platelet pellet is then separated from the rest of the mixture to determine platelet-bound radioactivity. Nonspecific binding is measured in mixtures containing an excess of unlabeled ligand. When binding curves are analyzed by Scatchard analysis, nonspecific binding is derived as a fitted parameter from the binding isotherm by means of a computerized program (Munson, P. J., Methods Enzymol. 92, 542-576 (1983)). […]

Test [2] concerns fixed activated platelets. Nature of the test: Platelet Aggregation Assay (inhibition of fibrinogen-mediated aggregation of fixed-activated platelets). It counts as cell-based. The settings on record: human fibrinogen 250 μg/ml, fixed thrombin-activated human platelets.
Description: as §1, §2
Preparation of Fixed-Activated Platelets
Platelets are isolated from human platelet concentrates using the gel-filtration technique as described by Marguerie, G. A., et al., J. Biol. Chem. 254, 5357-5363 (1979) and Ruggeri, Z. M., et al., J. Clin. Invest. 72, 1-12 (1983). The platelets are suspended at a concentration of 2×10^8 cells/ml in a modified calcium-free Tyrode's buffer containing 127 mM sodium chloride, 2 mM magnesium chloride, 0.42 mM Na2 HPO4, 11.9 mM NaHCO3, 2.9 mM KCl, 5.5 mM glucose, 10 mM HEPES, at a pH of 7.35 and 0.35% human serum albumin (HSA). These washed platelets are activated by addition of human α-thrombin at a final concentration of 2 units/ml, followed by thrombin inhibitor I-2581 at a final concentration of 40 μM. To the activated platelets is added paraformaldehyde to a final concentration of 0.50% and this incubated at room temperature for 30 minutes. The fixed activated platelets are then collected by centrifugation at 650×g for 15 minutes. The platelet pellets are washed four times with the above Tyrode's-0.35% HSA buffer and resuspended to 2×10^8 cells/ml in the same buffer.
Platelet Aggregation Assay
The fixed activated platelets are incubated with a selected dose of the compound to be tested for platelet aggregation inhibition for one minute and aggregation initiated by addition of human fibrinogen to a final concentration of 250 μg/ml. A platelet aggregation profiler Model PAP-4 is used to record the platelet aggregation. The extent of inhibition of aggregation is expressed as the percentage of the rate of aggregation observed in the absence of inhibitor. IC50, i.e., the amount of inhibitor required to reduce the aggregation rate by 50%, is then calculated for each compound (see, for example, Plow, E. F., et al., Proc. Natl. Acad. Sci., USA 82, 8057-8061 (1985)).

As to `N=C(N)NCCCCCCCC(=O)NC(CC(=O)O)NC(=O)CCCCCCCNC(=N)N` (stereo not shown) [Example 1, N,N'-bis-(8-guanidino)octanoyl-3,3-diaminopropionic acid], the values for the IC50 in test [1] and in test [2] were 0.07 µM and 0.12 µM, respectively.

`N=C(N)NCCCCCCCCC(=O)N[C@H](CC(=O)O)NC(=O)CCCCCCCNC(=N)N` [Example 2, (3S)-N-(8-guanidino)octanoyl-N'-(9-guanidino)nonanoyl-3,3-diaminopropionic acid] had an IC50 in test [2] of 1.3 µM.

`N=C(N)NCCCCCCC(=O)NC(CC(=O)O)NC(=O)CCCCCCNC(=N)N` (stereo not shown) [Example 4, N,N'-bis-(7-guanidino)heptanoyl-3,3-diaminopropionic acid]: in test [2], the IC50 was determined as 2.8 µM.

Regarding `N=C(N)NCCCCCCCCC(=O)NC(CC(=O)O)NC(=O)CCCCCCCCNC(=N)N` (stereo not shown) [Example 5, N,N'-bis-(9-guanidino)nonanoyl-3,3-diaminopropionic acid], in test [2], half-maximal inhibition (IC50) required 0.14 µM.

In turn, `N=C(N)NCCCCCCCCC(=O)N[C@H](CC(=O)O)NC(=O)CCCCCCNC(=N)N` [Example 6, (3S)-N-(7-guanidino)heptanoyl-N'-(9-guanidino)nonanoyl-3,3-diaminopropionicacid] came in with an IC50 in test [2] of 2.8 µM.

`N=C(N)NCCCCCCCC(=O)N[C@H](CC(=O)O)NC(=O)CCCCCCNC(=N)N` [Example 7, (3S)-N-(7-guanidino)heptanoyl-N'-(8-guanidino)octanoyl-3,3-diaminopropionicacid] returned an IC50 in test [2] of 0.74 µM.

`N=C(N)NCCCCCCCCC(=O)N[C@@H](CC(=O)O)NC(=O)CCCCCCCNC(=N)N` [Example 8, (3R)-N-(8-guanidino)octanoyl-N'-(9-guanidino)nonanoyl-3,3-diaminopropionic acid]: 0.3 µM corresponded to half-maximal inhibition in test [2] (IC50).

Turning to `N=C(N)NCCCCCCCC(=O)N[C@H](CC(=O)O)NC(=O)[C@@H](N)CCCNC(=N)N` [Example 9, (3S)-N-L-arginyl-N'-(8-guanidino)octanoyl-3,3-diaminopropionic acid], the values for the IC50 in test [1] and in test [2] were 1.2 µM and 9.8 µM, respectively.

`N=C(N)NCCCCCCCCC(=O)N[C@@H](CC(=O)O)NC(=O)CCCCCCNC(=N)N` [Example 10, (3R)-N-(7-guanidino)heptanoyl-N'-(9-guanidino)nonanoyl-3,3-diaminopropionicacid] gave an IC50 in test [2] of 0.12 µM.

`N=C(N)NCCCCCCCC(=O)N[C@@H](CC(=O)O)NC(=O)CCCCCCNC(=N)N` [Example 11, (3R)-N-(7-guanidino)heptanoyl-N'-(8-guanidino)octanoyl-3,3-diaminopropionicacid] displayed an IC50 in test [2] of 0.32 µM.

`CC(C)CC(=O)N[C@H](CC(=O)O)NC(=O)CCCCCCCNC(=N)N` [Example 12, (3R)-N-(8-guanidino)octanoyl-N'-(3-methyl)butanoyl-3,3-diaminopropionic acid]: the midpoint of inhibition in test [2], the IC50, lay at 2 µM.

In test [2], `CC[C@@H](C)[C@@H](NC(=O)CCCCNC(=N)N)C(=O)N[C@H](CC(=O)O)NC(=O)CCCCCCCCNC(=N)N` [Example 15, (3R)-N-[N-[(5-guanidino)pentanoyl]-D-isoleucyl]-N'-(9-guanidino)nonanoyl-3,3-diaminopropionic acid] showed an IC50 of 25 µM.

`CC[C@H](C)[C@H](NC(=O)CCCCNC(=N)N)C(=O)N[C@H](CC(=O)O)NC(=O)CCCCCCCCNC(=N)N` [Example 17] had an IC50 in test [2] of 17.5 µM.

In test [2], `N=C(N)NCCCCCCCC(=O)NC(CCC(=O)O)NC(=O)CCCCCCCNC(=N)N` (stereo not shown) [Example 18, N,N'-bis-(8-guanidino)octanoyl-4,4-diaminobutanoic acid] showed an IC50 greater than 100 µM.

For orientation: IC50 means the point on the concentration scale where inhibition reaches its midpoint.
